Reference: patent US20200148617A1, “GEMCABENE, PHARMACEUTICALLY ACCEPTABLE SALTS THEREOF, COMPOSITIONS THEREOF AND METHODS OF USE THEREFOR” (GEMPHIRE THERAPEUTICS INC., priority 2017, published 2020)

Key:
[1] = system: hepatic mRNA expression in STAM™ mice; assay: Murine STAM model of NASH-HCC: hepatic gene expression by quantitative RT-PCR; type: in vivo, mouse; details: for TNF-α mRNA expression (relative, normalized to vehicle-treated normal group): mean±SD, vehicle STAM 3.6±1.0; for ADH-4 mRNA expression levels (relative): vehicle STAM 0.9±0.3; for CRP mRNA levels (relative): vehicle STAM 1.0±0.2; for NF-κB mRNA expression levels (relative): vehicle STAM 1.1±0.1; for MMP-2 mRNA expression levels (relative): vehicle STAM 1.9±0.7; for CCR2 mRNA expression levels (relative): vehicle STAM 3.5±1.7; for MCP-1 mRNA expression levels (relative): vehicle STAM 3.6±1.7; for Sulf-2 mRNA expression levels (relative): vehicle STAM 5.2±1.2; for MIP-1β mRNA levels (relative): vehicle STAM 5.6±2.0; for TIMP-1 mRNA expression (relative): vehicle STAM 12.9±9.0
Experimental: A study was performed to evaluate the efficacy of gemcabene calcium salt hydrate Crystal Form 1 having a PSD90 of 52 μm as measured by laser light diffraction, in treating non-alcoholic steatosis hepatitis (NASH) in the murine STAM™ model of NASH-HCC.
Briefly, two-day old neonatal C57BL/6 male mice were administered low-dose streptozotocin (STZ), and were subsequently fed a HFC diet from 4 weeks of age. In this model, the mice typically develop liver steatosis and diabetes, reaching steatohepatitis within 3 weeks, followed by cirrhosis within 8 weeks, and carcinoma within 16 weeks. In the current study, mice were administered daily oral gemcabene calcium salt hydrate Crystal Form 1 starting at week 6 of age and were sacrificed at week 9. Telmisartan (with antisteatotic, anti-inflammatory and antifibrotic effects in STAM™ mice) was used as a positive comparator. A baseline reference group was administered vehicle at day 2 of age, and from week 6 of age was vehicle-treated and chow-fed. Five STAM™ groups were streptozocin-treated at day 2 of age and fed a HFC-diet beginning with week 4 of age. These STAM™ groups were orally administered from week 6 one of the following: water-vehicle, gemcabene calcium salt hydrate Crystal Form 1 at 30, 100 and 300 mg/kg daily, or telmisartan ([…]®) 10 mg/kg daily. Telmisartan ([…]®) was purchased from Boehringer Ingelheim GmbH (Germany) and dissolved in pure water. All groups were sacrificed at week 9. Vehicle, gemcabene calcium salt hydrate Crystal Form 1, or telmisartan were administered by oral gavage once daily.
Various gene expression markers of liver metabolism were evaluated by Real-Time PCR (RT-PCR) in all mouse groups. Total RNA was extracted from liver samples using RNAiso (Takara Bio, Japan) according to the manufacturer's instructions. One μg of RNA was reverse-transcribed using a reaction mixture containing 4.4 mM MgCl2 (F. Hoffmann-La Roche, Switzerland), 40 U RNase inhibitor (Toyobo, Japan), 0.5 mM dNTP (Promega, USA), 6.28 μM random hexamer (Promega), 5× first strand buffer (Promega), 10 mM dithiothreitol (Invitrogen, USA) and 200 U MMLV-RT (Invitrogen) in a final volume of 20 μL. The reaction was carried out for 1 hour at 37° C., followed by 5 minutes at 99° C. Real-time PCR was performed using real-time PCR DICE and SYBR premix Taq (Takara Bio). To calculate the relative mRNA expression level, the expression of each gene was normalized to that of reference gene 36B4 (gene symbol: Rplp0). Information of PCR-primer sets is described in Tables 20A-20C. Statistical analyses were performed using the Bonferroni Multiple Comparison Test on GraphPad Prism 6 (GraphPad Software Inc., USA). P values <0.05 were considered statistically significant. Results are expressed as mean±SD.
In order to calculate the relative mRNA expression level, the expression of each gene was normalized to that of the reference gene 36B4 (gene symbol: Rplp0). The gene expression levels were measured by quantitative RT-PCR. Results were normalized with values for the vehicle-treated normal group. […] Gemcabene calcium salt hydrate Crystal Form 1 (PSD90=52 μm) modulated the mRNA expression of many hepatic genes that play a significant role in the liver homeostasis and injury.

[2] = system: patients with hypercholesterolemia on stable statins; assay: 12-week placebo-controlled study of 600 mg QD in hypercholesterolemia patients on stable moderate and high-intensity statins: atherogenic and inflammatory biomarkers; type: in vivo, human; details: add-on to background statins
Experimental: High-risk patients including some, but not all those with heterozygous familial hypercholesterolemia (HeFH) or atherosclerotic cardiovascular disease (ASCVD) on appropriate diet and stable statin therapy for at least 12 weeks and LDL-C ≥100 mg/dL (2.59 mmol/L) and triglycerides <500 mg/dL (5.65 mmol/L) were randomized into a 12-week, placebo-controlled, parallel-group, double-blind study to assess the efficacy of gemcabene calcium salt hydrate Crystal Form 1 (PSD90=52 μm) 600 mg (300-mg Tablet D×2) QD on LDL-C and other lipoproteins and hsCRP (high-sensitivity C-reactive protein). Safety and tolerability were also evaluated. […]
Within the study population, an analysis was performed in a subpopulation of patients having mixed dyslipidemia (LDL-C ≥100 mg/dL and triglycerides ≥200 and <500 mg/dL). Eighteen patients (10 (Tablet D×2) patients and 8 placebo patients) having a baseline mean LDL-C level of 142 mg/dL, baseline mean triglyceride level of 247 mg/dL and BMI of 34 kg/m^2 were analyzed (FIG. 48). Although not measured in the subpopulation of this Example, some cardiometabolic patients could have elevated sulphatase-2 (Sulf-2) levels, which are believed to cause reduced Syndecan-1 (also known as “remnant receptor”)-mediated clearance of atherogenic remnant lipoproteins. […]

## CC(C)(CCCCOCCCCC(C)(C)C(=O)[O-])C(=O)[O-].O.[Ca+2] [6-(5-Carboxy-5-methyl-hexyloxy)-2,2-dimethylhexanoic acid calcium (gemcabene calcium salt) hydrate Crystal Form 1]
[1]; gemcabene 100 mg/kg
  CCR5 mRNA expression levels (relative): 1.4±0.3
  TNF-α mRNA expression (relative, normalized to vehicle-treated normal group): 2.0±0.8
  ADH-4 mRNA expression levels (relative): 0.6±0.1
  CRP mRNA levels (relative): 0.6±0.1
  NF-κB mRNA expression levels (relative): 0.9±0.1
  MMP-2 mRNA expression levels (relative): 0.5±0.2
  CCR2 mRNA expression levels (relative): 1.6±0.4
  MCP-1 mRNA expression levels (relative): 1.7±0.7
  Sulf-2 mRNA expression levels (relative): 3.8±0.7
  MIP-1β mRNA levels (relative): 2.3±0.9
  TIMP-1 mRNA expression (relative): 3.8±1.6
[1]; gemcabene 100 mg/kg, telmisartan 10 mg/kg, vehicle STAM 0.9±0.2
  ACC-1 mRNA expression levels (relative): 0.7±0.1
[1]; gemcabene 300 mg/kg
  CCR5 mRNA expression levels (relative): 1.3±0.3
  TNF-α mRNA expression (relative, normalized to vehicle-treated normal group): 1.9±0.7
  ADH-4 mRNA expression levels (relative): 0.5±0.1
  CRP mRNA levels (relative): 0.5±0.1
  NF-κB mRNA expression levels (relative): 0.8±0.1
  MMP-2 mRNA expression levels (relative): 0.9±0.2
  CCR2 mRNA expression levels (relative): 1.7±0.7
  MCP-1 mRNA expression levels (relative): 1.6±0.7
  Sulf-2 mRNA expression levels (relative): 3.3±0.9
  MIP-1β mRNA levels (relative): 2.8±1.4
  TIMP-1 mRNA expression (relative): 4.4±2.1
[2]
  serum hsCRP: decreased
